Read-outs that look alike come from different tables or passages of the source.
Tested on: anti-CD3/anti-CD28 (Th0) or anti-CD3/anti-CD28, IL-1β, IL-6 and IL-23 (Th17) stimulated whole blood
Test: Ex-vivo TruCulture tube assay: cytokine production in stimulated whole blood
Type: cell-based, human
Procedure: Whole blood was received through the Celgene Donor program after informed consent and donor deidentification. All volunteers were healthy and were not on any medications for at least 72 hours prior to the blood draw. Blood was collected in sodium heparin tubes. The assay was started within 2 hours of the blood draw.
An ex-vivo stimulation of healthy donor human whole blood was performed under two different stimulation conditions. Condition Th0 was a stimulation with TruCulture® tubes containing anti-CD3/anti-CD28. Condition Th17 was a stimulation with TruCulture® tubes containing anti-CD3/anti-CD28 plus IL-1β, IL-6 and IL-23. Whole blood was separated into 15 milliliter conical tubes and pre-treated with DMSO, apremilast alone, BMS-986165 alone or BMS-986165 combined with apremilast. Final concentrations were 0.2% DMSO, 1 μM for apremilast alone, 1 μM, 0.1 μM, 0.01 μM and 0.001 μM BMS-986165 alone and in combination with 1 μM apremilast. Blood was mixed well and then incubated in a 37° C./5% CO2 incubator for 1 hour.
The anti-CD3/anti-CD28 (200 ng/ml and 330 ng/ml final concentrations respectively) TruCulture® tubes were thawed on the bench top for 30 minutes and then labeled. Plungers were pressed and then broken off. TruCulture® tubes were placed in a rack standing upright such that the plunger side is pointing down in the rack and the tube-cap is pointing up. While blood was incubating with compound Human recombinant IL-6, IL-1β and IL-23 were added to all Th17 tubes in the following concentrations: 120 ng IL-6, 120 ng IL-1b and 150 ng IL-23. One ml of the pre-treated whole blood was placed in each tube, using sterile pyrogen-free pipette tips. The cap was replaced and the contents of the tube were mixed by inverting 3 times. The tubes were immediately placed in a 37° C. heat block and incubated for 42 hours (tube-cap end). After the 42 hours the tubes were removed from the heat block, tops were unscrewed and 250 μl of the supernatant was removed and transferred into three 96-well polypropylene plates. Samples were immediately frozen at −80° C. The supernatants were then thawed at room temperature and tested neat for cytokine production by Luminex Multi-Plex MagPix technology (Millipore) or IL-22 by ELISA (Abcam). The manufacturer's procedures were followed accordingly.
Data processing for the cytokine analysis was done using Milliplex Analyst (Millipore), and raw data was exported to Excel template for the cytokine analysis. Data from the template was plotted using GraphPad Prism 7.0 (GraphPad Software, Inc., La Jolla, CA) and expressed as pg/ml or % of control. Statistical analysis was also performed using One Way Anova and Dunnett's Post Test.
To evaluate the combinatory effect of apremilast and BMS-986165, data from the two independent treatments were analyzed by comparing the combinatory response against the theoretical additive response of the two agents. The expected additive effect of two agents (A and B) was calculated using the fractional product method: (fu)A,B=(fu)A×(fu)B; where fu=fraction unaffected by treatment.

[1] = Th0, 0.01 μM BMS-986165 (combination: + 1 μM apremilast)
[2] = Th0, 0.1 μM BMS-986165 (combination: + 1 μM apremilast)

[2H]C([2H])([2H])NC(=O)c1nnc(NC(=O)C2CC2)cc1Nc1cccc(-c2ncn(C)n2)c1OC [BMS-986165, 6-(cyclopropanecarboxamido)-4-((2-methoxy-3-(1-methyl-1H-1,2,4-triazol-3-yl)phenyl)amino)-N-(methyl-d3)pyridazine-3-carboxamide]
increase of GM-CSF, statistical significance (0.1 μM BMS-986165 (Th0 and Th17) and 1 μM (Th17)): significant | inhibition at 0.01 µM (Homo sapiens, Th0, 0.01 μM BMS-986165, read-out: inhibition of IL-22): 16% | inhibition at 0.1 µM (Homo sapiens, Th0, 0.1 μM BMS-986165, read-out: inhibition of IL-22): 86% | inhibition at 1 µM (Homo sapiens, Th0, 1 μM BMS-986165, read-out: inhibition of IL-22): 91% | inhibition at 0.001 µM (Homo sapiens, Th17, 0.001 μM BMS-986165 (combination: + 1 μM apremilast), read-out: inhibition of IL-17F): 31% | inhibition at 0.01 µM (Homo sapiens, Th17, 0.01 μM BMS-986165 (combination: + 1 μM apremilast), read-out: inhibition of IL-17F): 34% | inhibition at 0.1 µM (Homo sapiens, Th17, 0.1 μM BMS-986165 (combination: + 1 μM apremilast), read-out: inhibition of IL-17F): 70% | inhibition at 1 µM (Homo sapiens, Th17, 1 μM BMS-986165 (combination: + 1 μM apremilast), read-out: inhibition of IL-17F): 95% | inhibition at 1 µM (Homo sapiens, Th17, 1 μM BMS-986165, read-out: inhibition of TNF-α): 68% | increase in TNF-α expression (Th0, 0.001 μM BMS-986165): 21% | increase of GM-CSF (Th0, 0.001 μM BMS-986165): 19% | increase in TNF-α expression (Th0, 0.01 μM BMS-986165): 43% | increase of GM-CSF (Th0, 0.01 μM BMS-986165): 36% | CCL20 % of Control [1]: 82.7 % of Control | GM-CSF % of Control [1]: 136.3 % of Control | IFN-γ % of Control [1]: 100.2 % of Control | IL-1β % of Control [1]: 113.5 % of Control | IL-2 % of Control [1]: 120.1 % of Control | IL-4 % of Control [1]: 122.8 % of Control | IL-5 % of Control [1]: 153.1 % of Control | IL-6 % of Control [1]: 149.3 % of Control | IL-10 % of Control [1]: 101.5 % of Control | IL-13 % of Control [1]: 146.9 % of Control | IL-17A % of Control [1]: 83.5 % of Control | IL-17F % of Control [1]: 68.5 % of Control | IL-21 % of Control [1]: 107.6 % of Control | IL-22 % of Control [1]: 84.1 % of Control | IL-23 % of Control [1]: 101.8 % of Control | TNF-α % of Control [1]: 143.1 % of Control | increase in TNF-α expression (Th0, 0.1 μM BMS-986165): 61% | increase of GM-CSF (Th0, 0.1 μM BMS-986165): 110% | CCL20 % of Control [2]: 106.4 % of Control | GM-CSF % of Control [2]: 210.5 % of Control | IFN-γ % of Control [2]: 80.9 % of Control | IL-1β % of Control [2]: 113.2 % of Control | IL-2 % of Control [2]: 187.4 % of Control | IL-4 % of Control [2]: 114.7 % of Control | IL-5 % of Control [2]: 178.6 % of Control | IL-6 % of Control [2]: 124.0 % of Control | IL-10 % of Control [2]: 33.8 % of Control | IL-13 % of Control [2]: 205.9 % of Control | IL-17A % of Control [2]: 73.0 % of Control | IL-17F % of Control [2]: 28.3 % of Control | IL-21 % of Control [2]: 94.5 % of Control | IL-22 % of Control [2]: 13.4 % of Control | IL-23 % of Control [2]: 89.9 % of Control | TNF-α % of Control [2]: 160.7 % of Control | increase of GM-CSF (Th0, 1 μM BMS-986165): 31% | inhibition of TNF-α cytokine expression (Th0, 1 μM BMS-986165): 66% | IL-17A levels (Th0, 1 μM BMS-986165 (combination: + 1 μM apremilast), control 138 pg/mL): 97 pg/mL | effect on IL-17A cytokine expression (Th0 and Th17): inhibited | effect on IL-17F cytokine expression (Th0 and Th17): inhibited

From patent publication US20250235450A1, “COMBINATION THERAPIES COMPRISING APREMILAST AND TYK2 INHIBITORS” (Celgene Corporation, priority 2019, published 2025)
